Among the data in ChEMBL document CHEMBL3217585, “A rational design to create hybrid -sheet breaker peptides to inhibit aggregation and toxicity of amyloid-” (Medchemcomm, 2011) are Activity and inhibition values, retold here.

*1 amine or outer side, *2 acyl side, *3 side chain or, on linkers, in order; H or OH if unused. Where a SMILES comes first, the peptide text is derived from it. The star is where a group is joined. X7 = O=C(OC[C@@H](COS(=O)(=O)O)OS(=O)(=O)O)*; X6 = O=C(OC[C@H](COS(=O)(=O)O)OS(=O)(=O)O)*; X12 = O=S(=O)(O)OC[C@H](CN*)OS(=O)(=O)O; X2 = O=S(=O)(O)OC[C@@H](CN*)OS(=O)(=O)O; NH(3-hydroxypropyl) = OCCCN*; X3 = O=C(OCCCOS(=O)(=O)O)*; X10 = O=C(OC[C@@H](O)CO)*; X11 = O=C(OC[C@H](O)CO)*; X9 = O=S(=O)(O)OCCCCN*; X5 = O=S(=O)(O)OCCCN*; CO = O=C([*:1])[*:2]; NH(CH2)4OH = OCCCCN*; X14 = OC[C@H](O)CN*; X4 = OC[C@@H](O)CN*; X13 = O=C(OCCCO)*

Data set [1] deals with Amyloid-beta precursor protein (Homo sapiens) (UniProt P05067). As to the kind of experiment: Inhibition of amyloid beta (1 to 42) aggregation in HBP assessed as beta sheet formation at 1:20 protein to compound ratio after 48 hrs by Th-T fluorescence assay relative to control. Also on record: scale not given: the % may be the effect or the level left.
The target is the same in data set [2]. The data set is described as follows: Inhibition of amyloid beta (1 to 42)-mediated cytotoxicity in HBP assessed as cell death at 1:5 protein to compound ratio after 6 days by fluorescence assay relative to control. Further details: scale not given: the % may be the effect or the level left.
Data set [3] shares this target. As to the kind of experiment: Inhibition of monomeric amyloid beta (unknown origin)-mediated cytotoxicity at 1:5 protein to compound ratio by cell-based assay relative to control. The following applies: concentration not given here.
Data set [4] has the same target. The data set is described as follows: Inhibition of monomeric amyloid beta (unknown origin) aggregation at 1:20 protein to compound ratio relative to control. The following applies: concentration not given here.
A short description of data set [5]: Cytotoxicity against HBP assessed as cell death at 50 uM after 6 days by fluorescence assay. To be noted: human, 144 h.

Chain of Amyloid-beta precursor protein (Homo sapiens) (P05067 whole entry): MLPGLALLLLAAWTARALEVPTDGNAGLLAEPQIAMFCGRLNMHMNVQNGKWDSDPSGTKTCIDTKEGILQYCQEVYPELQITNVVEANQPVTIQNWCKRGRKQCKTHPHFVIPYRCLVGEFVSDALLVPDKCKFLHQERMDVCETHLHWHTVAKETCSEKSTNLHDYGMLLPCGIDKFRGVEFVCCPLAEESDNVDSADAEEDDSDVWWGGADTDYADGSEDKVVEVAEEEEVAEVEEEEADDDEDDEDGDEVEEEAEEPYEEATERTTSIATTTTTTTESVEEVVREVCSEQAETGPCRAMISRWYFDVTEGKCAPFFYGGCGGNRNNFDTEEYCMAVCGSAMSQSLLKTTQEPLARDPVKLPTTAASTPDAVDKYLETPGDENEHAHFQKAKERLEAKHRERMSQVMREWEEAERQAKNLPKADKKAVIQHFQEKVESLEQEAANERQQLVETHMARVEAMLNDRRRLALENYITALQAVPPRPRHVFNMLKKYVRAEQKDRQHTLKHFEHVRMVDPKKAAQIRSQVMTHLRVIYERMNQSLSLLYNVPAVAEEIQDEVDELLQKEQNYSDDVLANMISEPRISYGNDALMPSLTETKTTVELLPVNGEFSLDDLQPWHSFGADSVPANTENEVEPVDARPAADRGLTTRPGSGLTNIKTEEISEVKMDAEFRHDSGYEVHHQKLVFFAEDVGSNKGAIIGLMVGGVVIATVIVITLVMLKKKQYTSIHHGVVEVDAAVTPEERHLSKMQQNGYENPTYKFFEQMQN

As to `CC(C)C[C@H](NC(=O)NC[C@H](O)CO)C(=O)N1CCC[C@H]1C(=O)N[C@@H](Cc1ccccc1)C(=O)N[C@@H](Cc1ccccc1)C(=O)N[C@@H](CC(=O)O)C(N)=O` ({X4-CO}-LPFFD-NH2), the Activity in data set [1] is 98.7%; in data set [2], 92.5%.

With `CC(C)C[C@H](NC(=O)NCCCCOS(=O)(=O)O)C(=O)N1CCC[C@H]1C(=O)N[C@@H](Cc1ccccc1)C(=O)N[C@@H](Cc1ccccc1)C(=O)N[C@@H](CC(=O)O)C(N)=O` ({X9-CO}-LPFFD-NH2), the values for the Activity in data set [1] and in data set [2] were 100% and 96.5%, respectively.

As for `CC(C)C[C@H](NC(=O)NCCCCO)C(=O)N1CCC[C@H]1C(=O)N[C@@H](Cc1ccccc1)C(=O)N[C@@H](Cc1ccccc1)C(=O)N[C@@H](CC(=O)O)C(N)=O` ({NH(CH2)4OH-CO}-LPFFD-NH2), the Activity in data set [1] stood at 100%; in data set [2] it was 99.6%.

`CC(C)C[C@H](NC(=O)OCCCOS(=O)(=O)O)C(=O)N1CCC[C@H]1C(=O)N[C@@H](Cc1ccccc1)C(=O)N[C@@H](Cc1ccccc1)C(=O)N[C@@H](CC(=O)O)C(N)=O` (X3-LPFFD-NH2): the Activity in data set [1] and in data set [2] was 107% in each case.

On to `CC(C)C[C@H](NC(=O)OC[C@H](COS(=O)(=O)O)OS(=O)(=O)O)C(=O)N1CCC[C@H]1C(=O)N[C@@H](Cc1ccccc1)C(=O)N[C@@H](Cc1ccccc1)C(=O)N[C@@H](CC(=O)O)C(N)=O` (X6-LPFFD-NH2), for which the Activity in data set [1] amounted to 95.1%; in data set [2], 91.4%.

Regarding `CC(C)C[C@H](NC(=O)OCC(COS(=O)(=O)O)CS(=O)(=O)O)C(=O)N1CCC[C@@H]1C(=O)N[C@@H](Cc1ccccc1)C(=O)N[C@@H](Cc1ccccc1)C(=O)N[C@@H](CC(=O)O)C(=O)O` (some centres undefined), the Activity in data set [1] came out at 94.7%; in data set [2] it was 93.8%.

In the case of `CC(C)C[C@H](NC(=O)OCC(CO)CO)C(=O)N1CCC[C@@H]1C(=O)N[C@@H](Cc1ccccc1)C(=O)N[C@@H](Cc1ccccc1)C(=O)N[C@@H](CC(=O)O)C(=O)O`, the results for the Activity in data set [1] and in data set [2] were 87.9% and 94.8%, respectively.

`CC(C)C[C@H](NC(=O)NC[C@@H](O)CO)C(=O)N1CCC[C@H]1C(=O)N[C@@H](Cc1ccccc1)C(=O)N[C@@H](Cc1ccccc1)C(=O)N[C@@H](CC(=O)O)C(N)=O` ({X14-CO}-LPFFD-NH2): the results for the Activity in data set [1] and in data set [2] were 98.7% and 96.6%, respectively.

For `CC(C)C[C@H](NC(=O)OCCCO)C(=O)N1CCC[C@H]1C(=O)N[C@@H](Cc1ccccc1)C(=O)N[C@@H](Cc1ccccc1)C(=O)N[C@@H](CC(=O)O)C(N)=O` (X13-LPFFD-NH2), the Activity in data set [1] turned out to be 92.9%; in data set [2], 93%.

For Ac-LPFFD-NH2, the results for the Activity in data set [1] and in data set [2] were 51.9% and 51.8%, respectively. Moreover, the inhibition in data set [3] and in data set [4] was 50% each time.

On to `CC(C)C[C@H](NC(=O)NCCCO)C(=O)N1CCC[C@H]1C(=O)N[C@@H](Cc1ccccc1)C(=O)N[C@@H](Cc1ccccc1)C(=O)N[C@@H](CC(=O)O)C(N)=O` ({NH(3-hydroxypropyl)-CO}-LPFFD-NH2), for which the Activity in data set [1] came to 82.7%; in data set [2] it was 96.1%.

As for `CC(C)C[C@H](NC(=O)OC[C@H](O)CO)C(=O)N1CCC[C@H]1C(=O)N[C@@H](Cc1ccccc1)C(=O)N[C@@H](Cc1ccccc1)C(=O)N[C@@H](CC(=O)O)C(N)=O` (X11-LPFFD-NH2), the Activity was determined as 100% in data set [1] and 91.6% in data set [2].

`CC(C)C[C@H](NC(=O)OCC(CO)CO)C(=O)N1CCC[C@H]1C(=O)N[C@@H](Cc1ccccc1)C(=O)N[C@@H](Cc1ccccc1)C(=O)N[C@@H](CC(=O)O)C(=O)O`: the Activity entry is “Non-toxic” in data set [5], 76.4% in data set [1] and 81.1% in data set [2].

As to `CC(C)C[C@H](NC(=O)NCCCOS(=O)(=O)O)C(=O)N1CCC[C@H]1C(=O)N[C@@H](Cc1ccccc1)C(=O)N[C@@H](Cc1ccccc1)C(=O)N[C@@H](CC(=O)O)C(N)=O` ({X5-CO}-LPFFD-NH2), the Activity in data set [1] turned out to be 83%; in data set [2], 95.9%.

Take `CC(C)C[C@H](NC(=O)NC[C@@H](COS(=O)(=O)O)OS(=O)(=O)O)C(=O)N1CCC[C@H]1C(=O)N[C@@H](Cc1ccccc1)C(=O)N[C@@H](Cc1ccccc1)C(=O)N[C@@H](CC(=O)O)C(N)=O` ({X12-CO}-LPFFD-NH2): the Activity in data set [1] turned out to be 127%; in data set [2], 92%.

For `CC(C)C[C@H](NC(=O)NC[C@H](COS(=O)(=O)O)OS(=O)(=O)O)C(=O)N1CCC[C@H]1C(=O)N[C@@H](Cc1ccccc1)C(=O)N[C@@H](Cc1ccccc1)C(=O)N[C@@H](CC(=O)O)C(N)=O` ({X2-CO}-LPFFD-NH2), the results for the Activity in data set [1] and in data set [2] were 120% and 92%, respectively.

`CC(C)C[C@H](NC(=O)OC[C@@H](COS(=O)(=O)O)OS(=O)(=O)O)C(=O)N1CCC[C@H]1C(=O)N[C@@H](Cc1ccccc1)C(=O)N[C@@H](Cc1ccccc1)C(=O)N[C@@H](CC(=O)O)C(N)=O` (X7-LPFFD-NH2): the figures for the Activity in data set [1] and in data set [2] were 96.3% and 95.9%, respectively.

In the case of `CC(C)C[C@H](NC(=O)OC[C@@H](O)CO)C(=O)N1CCC[C@H]1C(=O)N[C@@H](Cc1ccccc1)C(=O)N[C@@H](Cc1ccccc1)C(=O)N[C@@H](CC(=O)O)C(N)=O` (X10-LPFFD-NH2), the Activity in data set [1] amounted to 97%; in data set [2] it was 89.7%.
